In patent US20170157135A1 (Novogen Limited, priority 2013, published 2017):

What was measured:
Format in all cases: cell-based
[1] = test system: PC3 prostate cancer cells; assay: Anti-proliferative assay (cell-titre luminescent), PC3; conditions: PC3, 72 hours, luminescence
Protocol: (§1) The ability of compounds 2002, 2009 and 2013-2064 to inhibit the proliferation of cancer cells representative of neuroblastoma, melanoma, prostate cancer, colorectal cancer, non-small cell lung carcinoma, and triple negative breast cancer was assessed. These studies were conducted by contract research (GVK-BIO). Briefly, a pre-determined number of cells as calculated from cell growth assays for each of the cell lines employed were seeded into their respective culture medium (using ATCC culture parameters—http://www.atcc.org) and cultured for 24 h at 37° C. and 5% CO2 in 96-well culture plates. Once attached, each cell line was then exposed to various concentrations of each respective analogue (30, 10, 3, 1, 0.3 and 0.1 μM), cultured for a further 72 hours and exposed to cell-titre luminescent reagent (100 μL/well) for a further 30 minutes). Luminescence was captured using an EnVision multilabel reader and the data for each analogue concentration compared against no treatment control. Cell viability was normalized to control (vehicle alone) and dose-response curves, and half maximal effective concentration (EC50) values were determined using Graph Pad Prism 6 (nonlinear regression sigmoidal dose-response variable slope).

SK-Mel-28 melanoma cells = assay: Anti-proliferative assay (cell-titre luminescent), SK-Mel-28; conditions: Homo sapiens; SK-Mel-28, 72 hours, luminescence
Protocol: as §1

A549 lung (NSLC) cells = assay: Anti-proliferative assay (cell-titre luminescent), A549; conditions: Homo sapiens; A549, 72 hours, luminescence
Protocol: as §1

[2] = test system: DU145 prostate cancer cells; assay: Anti-proliferative assay (cell-titre luminescent), DU145; conditions: Homo sapiens, DU-145; DU145, 72 hours, luminescence
Protocol: as §1

[3] = test system: CaCo2 colorectal cancer cells; assay: Anti-proliferative assay (cell-titre luminescent), CaCo2; conditions: Homo sapiens, Caco-2; CaCo2, 72 hours, luminescence
Protocol: as §1

[4] = test system: SK-N-SH neuroblastoma cells; assay: Anti-proliferative assay (cell-titre luminescent), SK-N-SH; conditions: Homo sapiens, 72 hours, luminescence
Protocol: as §1

[5] = test system: MDA-MB-231 breast cancer cells; assay: Anti-proliferative assay (cell-titre luminescent), MDA-MB-231; conditions: Homo sapiens; MDA-MB-231, 72 hours, luminescence
Protocol: as §1

Row | SMILES | IC50 [1] | IC50 (SK-Mel-28 melanoma cells) | IC50 (A549 lung (NSLC) cells) | IC50 [2] | IC50 [3] | IC50 [4] | IC50 [5]
1 | Cc1c(/C=C/C(=O)N2CCN(CCc3cccc(F)c3)CC2)c2ccccc2n1CCCN(C)C [Compound 2015, (E)-3-(1-(3-(dimethylamino)propyl)-2-methyl-1H-indol-3-yl)-1-(4-(3-fluorophenethyl)piperazin-1-yl)prop-2-en-1-one] | 12.4 µM | 3.9 µM | 14.1 µM | 39.2 µM | 15.9 µM | 8.8 µM | 21.1 µM
2 | COc1ccc2c(c1)c(C(=O)N1CCN(CCc3ccc(F)cc3)CC1)c(C)n2CCCN(C)C [Compound 2044, (1-(3-(dimethylamino)propyl)-5-methoxy-2-methyl-1H-indol-3-yl)(4-(4-fluorophenethyl)piperazin-1-yl)methanone] | 11 µM | 6.6 µM | 12.2 µM | 10.1 µM | 11.9 µM | 6.6 µM | 20.4 µM
3 | COc1cccc(CCN2CCN(C(=O)/C=C/c3c(C)n(CCCN(C)C)c4ccc(OC)cc34)CC2)c1 [Compound 2022, (E)-3-(1-(3-(dimethylamino)propyl)-5-methoxy-2-methyl-1H-indol-3-yl)-1-(4-(3-methoxyphenethyl)piperazin-1-yl)prop-2-en-1-one] | 7.6 µM | 17.2 µM | 12.7 µM | 22 µM | 21.5 µM | 12.5 µM | 11.3 µM
4 | COc1ccc(CCN2CCN(C(=O)/C=C/c3c(C)n(CCCN(C)C)c4ccccc34)CC2)cc1 [Compound 2013, (E)-3-(1-(3-(dimethylamino)propyl)-2-methyl-1H-indol-3-yl)-1-(4-(4-methoxyphenethyl)piperazin-1-yl)prop-2-en-1-one] | 4.8 µM | 3.8 µM | 6.1 µM | 10 µM | 9.1 µM | 3.2 µM | 6.8 µM
5 | CCOc1ccc2c(c1)c(C(=O)N1CCN(CCc3ccc(F)cc3)CC1)c(C)n2CCCN(C)C [Compound 2062, (1-(3-(dimethylamino)propyl)-5-ethoxy-2-methyl-1H-indol-3-yl)(4-(4-fluorophenethyl)piperazin-1-yl)methanone] | 13.1 µM | 9 µM | > 30 µM | > 30 µM | 18.6 µM | 20.6 µM | 8.1 µM
6 | COc1ccc2c(c1)c(/C=C/C(=O)N1CCN(CCc3ccccc3)CC1)c(C)n2CCCN1CCN(C)CC1 [Compound 2034, (E)-3-(5-methoxy-2-methyl-1-(3-(4-methylpiperazin-1-yl)propyl)-1H-indol-3-yl)-1-(4-phenethylpiperazin-1-yl)prop-2-en-1-one] | 11.5 µM | 16.2 µM | 51.3 µM | 17.2 µM | 8.1 µM | 10.8 µM | 13.7 µM
7 | CCN(CC)CCCn1c(C)c(/C=C/C(=O)N2CCN(CCc3ccc(OC)cc3)CC2)c2cc(OC)ccc21 [Compound 2024, (E)-3-(1-(3-(diethylamino)propyl)-5-methoxy-2-methyl-1H-indol-3-yl)-1-(4-(4-methoxyphenethyl)piperazin-1-yl)prop-2-en-1-one] | 5.7 µM | 3 µM | 7.7 µM | 8.4 µM | 5.3 µM | 3.4 µM | 4.1 µM
8 | CCN(CC)CCCn1c(C)c(C(=O)N2CCN(CCc3ccc4c(c3)OCO4)CC2)c2cc(OC)ccc21 [Compound 2052, (4-(2-(benzo[d][1,3]dioxol-5-yl)ethyl)piperazin-1-yl)(1-(3-(diethylamino)propyl)-5-methoxy-2-methyl-1H-indol-3-yl)methanone] | 10.9 µM | 5.7 µM | 11.8 µM | 9.2 µM | 16 µM | 10.9 µM | 12.7 µM
9 | COc1ccc2c(c1)c(C(=O)N1CCN(CCc3ccc4c(c3)OCO4)CC1)c(C)n2CCCN(C)C [Compound 2046, (4-(2-(benzo[d][1,3]dioxol-5-yl)ethyl)piperazin-1-yl)(1-(3-(dimethylamino)propyl)-5-methoxy-2-methyl-1H-indol-3-yl)methanone] | 20.3 µM | 4.4 µM | 14.4 µM | 13.3 µM | 8 µM | 7.9 µM | 11.3 µM
10 | COc1ccc2c(c1)c(/C=C/C(=O)N1CCN(CCc3cccc(F)c3)CC1)c(C)n2CCCN(C)C [Compound 2021, (E)-3-(1-(3-(dimethylamino)propyl)-5-methoxy-2-methyl-1H-indol-3-yl)-1-(4-(3-fluorophenethyl)piperazin-1-yl)prop-2-en-1-one] | 7.2 µM | 4.3 µM | 5.4 µM | 6.9 µM | 7.4 µM | 5.4 µM | 4.8 µM
11 | CCOc1ccc2c(c1)c(C(=O)N1CCN(CCc3ccc(F)cc3)CC1)c(C)n2CCCN(CC)CC [Compound 2063, (1-(3-(diethylamino)propyl)-5-ethoxy-2-methyl-1H-indol-3-yl)(4-(4-fluorophenethyl)piperazin-1-yl)methanone] | 7.2 µM | 3.5 µM | 10.9 µM | 13 µM | 4.1 µM | 5.3 µM | 3 µM
12 | CCOc1ccc2c(c1)c(/C=C/C(=O)N1CCN(CCc3ccc(F)cc3)CC1)c(C)n2CCCN1CCN(C)CC1 [Compound 2037, (E)-3-(5-ethoxy-2-methyl-1-(3-(4-methylpiperazin-1-yl)propyl)-1H-indol-3-yl)-1-(4-(4-fluorophenethyl)piperazin-1-yl)prop-2-en-1-one] | 8.7 µM | 2.7 µM | 6.6 µM | 5 µM | 4.8 µM | 3.1 µM | 5 µM
13 | CCOc1ccc2c(c1)c(/C=C/C(=O)N1CCN(CCc3ccc(F)cc3)CC1)c(C)n2CCCN(C)C [Compound 2035, (E)-3-(1-(3-(dimethylamino)propyl)-5-ethoxy-2-methyl-1H-indol-3-yl)-1-(4-(4-fluorophenethyl)piperazin-1-yl)prop-2-en-1-one] | 5.6 µM | 3.2 µM | 8.3 µM | 6.2 µM | 5.1 µM | 3.3 µM | 3 µM
14 | CCN(CC)CCCn1c(C)c(/C=C/C(=O)N2CCN(CCc3cccc(OC)c3)CC2)c2cc(OC)ccc21 [Compound 2027, (E)-3-(1-(3-(diethylamino)propyl)-5-methoxy-2-methyl-1H-indol-3-yl)-1-(4-(3-methoxyphenethyl)piperazin-1-yl)prop-2-en-1-one] | 9.3 µM | 3.8 µM | 23.5 µM | 51.9 µM | 12.3 µM | 8.2 µM | 5.6 µM
15 | Cc1c(/C=C/C(=O)N2CCN(CCc3ccc4c(c3)OCO4)CC2)c2ccccc2n1CCCN(C)C [Compound 2014, (E)-1-(4-(2-(benzo[d][1,3]dioxol-5-yl)ethyl)piperazin-1-yl)-3-(1-(3-(dimethylamino)propyl)-2-methyl-1H-indol-3-yl)prop-2-en-1-one] | 6.5 µM | 3.2 µM | 25.7 µM | 7.6 µM | 9 µM | 3.7 µM | 6.2 µM
16 | CCN(CC)CCCn1c(C)c(C(=O)N2CCN(CCc3ccccc3)CC2)c2cc(OC)ccc21 [Compound 2055, (1-(3-(diethylamino)propyl)-5-methoxy-2-methyl-1H-indol-3-yl)(4-phenethylpiperazin-1-yl)methanone] | > 30 µM | 1.1 µM | > 30 µM | > 30 µM | > 30 µM | > 30 µM | > 30 µM
17 | COc1ccc2c(c1)c(/C=C/C(=O)N1CCN(CCc3ccc(F)cc3)CC1)c(C)n2CCCN(C)C [Compound 2018, (E)-3-(1-(3-(dimethylamino)propyl)-5-methoxy-2-methyl-1H-indol-3-yl)-1-(4-(4-fluorophenethyl)piperazin-1-yl)prop-2-en-1-one] | 8 µM | 4.3 µM | 15.9 µM | 12.1 µM | 38 µM | 8.5 µM | 5.7 µM
18 | COc1ccc(CCN2CCN(C(=O)/C=C/c3c(C)n(CCCN4CCN(C)CC4)c4ccc(OC)cc34)CC2)cc1 [Compound 2030, (E)-3-(5-methoxy-2-methyl-1-(3-(4-methylpiperazin-1-yl)propyl)-1H-indol-3-yl)-1-(4-(4-methoxyphenethyl)piperazin-1-yl)prop-2-en-1-one] | 4 µM | 3.4 µM | 7.9 µM | 7.9 µM | 5.4 µM | 3.6 µM | 4.3 µM
